Laboratory results as given in patent US20250136555A1 (HARBIN MEDISAN PHARMACEUTICAL CO., LTD., priority 2022, published 2025).
Like-named read-outs stand apart in the source and are kept apart here.

Assays:
Format in all cases: cell-based
PPARα = molecular target: T1, PPARα (Homo sapiens, UniProt Q07869); test: GAL4 hybrid reporter gene method, PPARα agonistic activity; details: Cos-7 cells, Gal4-PPARα (LBD); GW7647 10 nM = 100%; 16 h
T1 construct: expressed in transfected cells; host or cells: COS-7
T1 sequence (Q07869 239-466 limits assumed): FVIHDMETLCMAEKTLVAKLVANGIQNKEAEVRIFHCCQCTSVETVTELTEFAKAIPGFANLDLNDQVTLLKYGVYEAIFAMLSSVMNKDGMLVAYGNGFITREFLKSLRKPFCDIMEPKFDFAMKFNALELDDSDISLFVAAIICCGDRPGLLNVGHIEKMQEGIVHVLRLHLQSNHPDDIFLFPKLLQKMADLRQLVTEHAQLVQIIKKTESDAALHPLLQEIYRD
Procedure: (§1) Cos-7 cells (African green monkey kidney fibroblasts, commonly used tool cells) were cultured in a 10-cm cell culture dish with a DMEM complete medium containing 10% fetal bovine serum. When growing at a density of about 70%, the cells were ready for transfection. […] The working solution described above was then combined with 8 mL of the DMEM complete medium, and the mixture was added to the cell culture dish for cell transfection. After 4 h of transfection, the cells were digested, resuspended, and seeded into a 96-well plate at 25,000 cells/well. […] 10 μL of a reporter gene detection solution (purchased from Shanghai Beyotime Biological Tech. Co., Ltd.) was added. After the resulting solution was mixed and reacted, biological fluorescence was detected by using a multifunctional microplate reader, and corresponding half maximal effective concentration (EC50) values were calculated according to the detection values. […] Transfection working solutions for different nuclear receptors were prepared and added into COS-7 cells. The preparation method for the transfection working solution was as follows: the constructed pBIND-Gal4-PPARα (LBD) (or pBIND-Gal4-PPARδ (LBD) plasmid or pBIND-Gal4-PPARγ (LBD) plasmid or pBIND-Gal4-RARα (LBD) plasmid or pBIND-Gal4-RARγ (LBD) plasmid or pBIND-Gal4-RARβ (LBD) plasmid or pBIND-Gal4-RORα (LBD) plasmid or pBIND-Gal4-RORγ (LBD) plasmid or pBIND-Gal4-RORβ (LBD) plasmid or pBIND-Gal4-FXR (LBD) plasmid or pBIND-Gal4-RXRα.

PPARδ = molecular target: T2, PPARδ (Homo sapiens, UniProt Q03181); test: GAL4 hybrid reporter gene method, PPARδ agonistic activity
T2 construct: expressed in transfected cells; host or cells: COS-7
T2 sequence (Q03181 211-439 limits assumed): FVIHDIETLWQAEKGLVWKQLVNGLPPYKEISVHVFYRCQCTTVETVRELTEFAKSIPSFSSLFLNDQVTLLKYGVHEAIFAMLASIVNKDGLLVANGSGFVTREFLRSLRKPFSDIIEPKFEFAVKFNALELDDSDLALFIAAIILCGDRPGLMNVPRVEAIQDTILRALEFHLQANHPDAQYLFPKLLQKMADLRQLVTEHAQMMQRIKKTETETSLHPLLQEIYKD
Procedure: as §1

PPARγ = molecular target: T3, PPARγ (Homo sapiens, UniProt P37231); test: GAL4 hybrid reporter gene method, PPARγ agonistic activity
T3 construct: expressed in transfected cells; host or cells: COS-7
T3 sequence (P37231 238-503 limits assumed): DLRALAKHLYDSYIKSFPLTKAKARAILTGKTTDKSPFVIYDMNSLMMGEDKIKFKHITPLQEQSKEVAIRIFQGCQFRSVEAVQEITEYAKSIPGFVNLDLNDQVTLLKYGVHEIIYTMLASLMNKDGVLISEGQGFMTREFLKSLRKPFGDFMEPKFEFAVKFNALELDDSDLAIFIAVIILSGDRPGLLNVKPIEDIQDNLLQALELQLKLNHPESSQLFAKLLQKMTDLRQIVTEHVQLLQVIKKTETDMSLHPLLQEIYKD
Procedure: as §1

[1] = Cos-7 cells, Gal4-PPARδ (LBD), GW501516 10 nM = 100%, 16 h
[2] = Cos-7 cells, Gal4-PPARγ (LBD), Rosiglitazone 1 μM = 100%, 16 h

SMILES	EC50 (PPARα) [nM]	EC50 (PPARδ; [1]) [nM]	EC50 (PPARγ; [2]) [nM]	also measured
CC(C)(Oc1c(Br)cc(CN2C(=O)CN(c3ccc(C(F)(F)F)cc3)C2=O)cc1Br)C(=O)O [Compound 19, 2-(2,6-Dibromo-4-((2,5-dioxo-3-(4-(trifluoromethyl)phenyl)imidazolidin-1-yl)methyl)phenoxy)-2-methylpropionic Acid]	2.2	23.6		
Cc1cc(CN2C(=O)CN(c3ccc(Cl)cc3)C2=O)cc(C)c1OC(C)(C)C(=O)O [Compound 27, 2-(4-((3-(4-Chlorophenyl)-2,5-dioxoimidazolin-1-yl)methyl)-2,6-dimethylphenoxy)-2-methylpropionic Acid]	17		1420	
CC(C)(Oc1c(Cl)cc(CN2C(=O)CN(c3ccc(C(F)(F)F)cc3)C2=O)cc1Cl)C(=O)O [Compound 17, 2-(2,6-Dichloro-4-((2,5-dioxo-3-(4-(trifluoromethyl)phenyl)imidazolidin-1-yl)methyl)phenoxy)-2-methylpropionic Acid]		24.8		
Cc1cc(CN2C(=O)CN(c3ccc(C(F)(F)F)c(F)c3)C2=O)cc(C)c1OC(C)(C)C(=O)O [Compound 31, 2-(2,6-Dimethyl-4-((3-(3-fluoro-4-(trifluoromethyl)phenyl)-2,5-dioxoimidazolin-1-yl)methyl)phenoxy)-2-methylpropionic Acid]	2.1	0.8		
CSc1ccc(N2CC(=O)N(Cc3cc(C)c(OC(C)(C)C(=O)O)c(C)c3)C2=O)cc1 [Compound 43]				PPARα EC50 (nM) (PPARα): low nanomolar levels; PPARδ EC50 (nM) (PPARδ; [1]): low nanomolar levels
CCc1ccc(N2CC(=O)N(Cc3cc(C)c(OC(C)(C)C(=O)O)c(C)c3)C2=O)cc1 [Compound 75, 2-(4-(3-(4-Ethylphenyl)-2,5-dioxoimidazolidin-1-yl)methyl)-2,6-dimethylphenoxy-2-methylpropionic Acid]	1	6.3		PPARα EC50 (nM) (PPARα): low nanomolar levels; PPARδ EC50 (nM) (PPARδ; [1]): low nanomolar levels
Cc1cc(CN2C(=O)N(c3ccc(OC(F)(F)F)cc3)C(C)(C)C2=O)cc(C)c1OC(C)(C)C(=O)O [Compound 7]	668			EC50 (PPARδ): 176 nM
Cc1cc(CN2C(=O)CN(c3ccc(Br)cc3)C2=O)cc(C)c1OC(C)(C)C(=O)O [Compound 61, 2-(4-((3-(4-Bromophenyl)-2,5-dioxoimidazolin-1-yl)methyl)-2,6-dimethylphenoxy)-2-methylpropionic Acid]	3.9		1200	PPARα EC50 (nM) (PPARα): low nanomolar levels
Cc1cc(CN2C(=O)CN(Cc3ccc(C(F)(F)F)cc3)C2=O)cc(C)c1OC(C)(C)C(=O)O [Compound 93]			1490	
Cc1cc(CN2C(=O)CN(c3ccc(C(F)(F)F)cc3)C2=O)cc(C)c1OC(C)C(=O)O (stereo not shown) [Compound 63, 2-(4-((2,5-Dioxo-3-(4-(trifluoromethyl)phenyl)imidazolin-1-yl)methyl)-2,6-dimethylphenoxy)propionic Acid]	25.1			EC50 (PPARδ): 4 nM
Cc1cc(CN2C(=O)CN(c3ccc(C(C)C)cc3)C2=O)cc(C)c1OC(C)(C)C(=O)O [Compound 65, 2-(4-((3-(4-Isopropylphenyl)-2,5-dioxoimidazolin-1-yl)methyl)-2,6-dimethylphenoxy)-2-methylpropionic Acid]	0.8		971	
Cc1cc(CN2C(=O)N(c3ccc(C(F)(F)F)cc3)C(C)(C)C2=O)cc(C)c1OC(C)(C)C(=O)O [Compound 5, 2-(4-((4,4-Dimethyl-2,5-dioxo-3-(4-(trifluoromethyl)phenyl)imidazolin-1-yl)methyl)-2,6-dimethylphenoxy)-2-methylpropionic Acid]	252	60		
Cc1cc(CN2C(=O)CN(c3ccc(OC(F)(F)F)cc3)C2=O)cc(C)c1OC(C)(C)C(=O)O [Compound 3, 2-(4-((2,5-Dioxo-3-(4-(trifluoromethoxy)phenyl)imidazolidin-1-yl)methyl)-2,6-dimethylphenoxy)-2-methylpropionic Acid]		4.4		PPARδ EC50 (nM) (PPARδ; [1]): low nanomolar levels; EC50 (PPARγ): 4150 nM
